Assay results: ChEMBL document CHEMBL1909046, “DrugMatrix in vitro pharmacology data”

Legend:
Cytochrome P450 3A4 = Cytochrome P450 3A4 (Homo sapiens, UniProt P08684); conditions: bti-tn-5b1-4; also: in other assays of this panel Not Active means under 50% inhibition at 10 µM
Progesterone receptor = target: T1, Progesterone receptor (Bos taurus, UniProt Q690N0); experiment: DRUGMATRIX: Progesterone radioligand binding (ligand: [3H] R-5020); type: tissue-based, Uterus; conditions: Not Active = under 50% inhibition at 10 µM
T1 sequence (Q690N0 whole entry): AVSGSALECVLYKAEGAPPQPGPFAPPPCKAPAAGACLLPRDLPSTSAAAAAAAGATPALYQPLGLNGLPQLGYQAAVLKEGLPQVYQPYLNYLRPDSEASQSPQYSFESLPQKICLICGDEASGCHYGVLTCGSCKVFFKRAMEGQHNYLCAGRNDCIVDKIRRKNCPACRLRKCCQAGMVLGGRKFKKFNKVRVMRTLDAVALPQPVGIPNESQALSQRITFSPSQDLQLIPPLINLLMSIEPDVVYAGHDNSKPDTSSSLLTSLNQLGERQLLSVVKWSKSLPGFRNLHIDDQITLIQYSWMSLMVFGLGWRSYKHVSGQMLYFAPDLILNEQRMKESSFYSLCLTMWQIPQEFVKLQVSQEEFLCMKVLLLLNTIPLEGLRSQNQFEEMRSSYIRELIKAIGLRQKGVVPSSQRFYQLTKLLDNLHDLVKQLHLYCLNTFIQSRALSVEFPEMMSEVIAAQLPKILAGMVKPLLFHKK

Cytochrome P450 1A2 = target: T2, Cytochrome P450 1A2 (Homo sapiens, UniProt P05177); conditions: bti-tn-5b1-4; also: in other assays of this panel Not Active means under 50% inhibition at 10 µM
T2 sequence (P05177 whole entry): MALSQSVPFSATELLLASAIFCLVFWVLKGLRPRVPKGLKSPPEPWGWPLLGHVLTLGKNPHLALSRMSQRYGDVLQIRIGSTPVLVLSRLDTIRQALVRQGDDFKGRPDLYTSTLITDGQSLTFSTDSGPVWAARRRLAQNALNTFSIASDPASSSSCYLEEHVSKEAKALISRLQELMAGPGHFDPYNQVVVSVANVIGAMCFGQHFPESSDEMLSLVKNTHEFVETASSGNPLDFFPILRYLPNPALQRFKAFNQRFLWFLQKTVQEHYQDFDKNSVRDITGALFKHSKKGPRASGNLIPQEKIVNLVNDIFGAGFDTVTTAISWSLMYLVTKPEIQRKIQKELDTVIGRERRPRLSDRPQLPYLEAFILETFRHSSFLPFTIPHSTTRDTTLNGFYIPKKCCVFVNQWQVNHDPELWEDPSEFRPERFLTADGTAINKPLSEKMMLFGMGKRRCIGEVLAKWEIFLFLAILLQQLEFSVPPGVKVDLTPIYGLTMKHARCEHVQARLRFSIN

D(1A) dopamine receptor = D(1A) dopamine receptor (Homo sapiens, UniProt P21728); experiment: DRUGMATRIX: Dopamine D1 radioligand binding (ligand: [3H] SCH-23390); type: cell membranes, CHO, Membrane; conditions: cho; Not Active = under 50% inhibition at 10 µM
[1] = target: 5-hydroxytryptamine receptor 2B (Homo sapiens, UniProt P41595); type: cell membranes, CHO-K1, Membrane; conditions: cho-k1; also: in other assays of this panel Not Active means under 50% inhibition at 10 µM
Cytochrome P450 2D6 = Cytochrome P450 2D6 (Homo sapiens, UniProt P10635); conditions: bti-tn-5b1-4; also: in other assays of this panel Not Active means under 50% inhibition at 10 µM
Cytochrome P450 2C19 = Cytochrome P450 2C19 (Homo sapiens, UniProt P33261); conditions: bti-tn-5b1-4; also: in other assays of this panel Not Active means under 50% inhibition at 10 µM
Glucocorticoid receptor = target: T3, Glucocorticoid receptor (Homo sapiens, UniProt P04150); conditions: hela s3; also: in other assays of this panel Not Active means under 50% inhibition at 10 µM
T3 sequence (P04150 whole entry): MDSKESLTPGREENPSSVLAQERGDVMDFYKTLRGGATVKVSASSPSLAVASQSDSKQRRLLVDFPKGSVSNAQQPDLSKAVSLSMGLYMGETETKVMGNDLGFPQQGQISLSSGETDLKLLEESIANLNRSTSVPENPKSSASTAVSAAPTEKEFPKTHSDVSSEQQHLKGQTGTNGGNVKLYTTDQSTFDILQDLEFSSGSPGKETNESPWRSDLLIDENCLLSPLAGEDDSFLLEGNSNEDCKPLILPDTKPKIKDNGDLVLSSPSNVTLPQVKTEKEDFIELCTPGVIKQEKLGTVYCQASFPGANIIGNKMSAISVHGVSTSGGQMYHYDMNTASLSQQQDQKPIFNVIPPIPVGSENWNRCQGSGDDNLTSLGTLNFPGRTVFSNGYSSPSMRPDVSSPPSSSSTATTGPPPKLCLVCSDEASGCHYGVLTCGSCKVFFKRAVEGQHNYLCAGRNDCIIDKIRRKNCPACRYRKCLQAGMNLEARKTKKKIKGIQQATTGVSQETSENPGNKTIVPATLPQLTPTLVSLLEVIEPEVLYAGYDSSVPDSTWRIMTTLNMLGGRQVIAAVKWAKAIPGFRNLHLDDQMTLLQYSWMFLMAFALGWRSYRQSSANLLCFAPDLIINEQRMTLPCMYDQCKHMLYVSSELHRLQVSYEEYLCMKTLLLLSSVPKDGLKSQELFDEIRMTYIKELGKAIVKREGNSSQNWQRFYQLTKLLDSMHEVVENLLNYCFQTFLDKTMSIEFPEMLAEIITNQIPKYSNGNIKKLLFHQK

Cytochrome P450 2C19, sequence (P33261 whole entry): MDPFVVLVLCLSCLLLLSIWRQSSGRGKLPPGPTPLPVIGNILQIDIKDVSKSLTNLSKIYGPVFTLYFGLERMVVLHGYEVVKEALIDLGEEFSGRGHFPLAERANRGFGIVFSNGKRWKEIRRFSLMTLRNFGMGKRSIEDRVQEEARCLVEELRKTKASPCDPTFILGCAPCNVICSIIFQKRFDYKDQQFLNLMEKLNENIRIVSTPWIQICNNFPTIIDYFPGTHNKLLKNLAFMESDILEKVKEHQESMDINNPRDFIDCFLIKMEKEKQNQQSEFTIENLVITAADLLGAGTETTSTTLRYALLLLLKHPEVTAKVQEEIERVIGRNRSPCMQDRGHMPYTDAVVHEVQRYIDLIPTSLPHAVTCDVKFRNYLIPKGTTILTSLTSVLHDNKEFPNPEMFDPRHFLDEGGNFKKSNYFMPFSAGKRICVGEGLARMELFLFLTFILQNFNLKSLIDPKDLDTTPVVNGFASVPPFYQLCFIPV
D(1A) dopamine receptor, sequence (P21728 whole entry): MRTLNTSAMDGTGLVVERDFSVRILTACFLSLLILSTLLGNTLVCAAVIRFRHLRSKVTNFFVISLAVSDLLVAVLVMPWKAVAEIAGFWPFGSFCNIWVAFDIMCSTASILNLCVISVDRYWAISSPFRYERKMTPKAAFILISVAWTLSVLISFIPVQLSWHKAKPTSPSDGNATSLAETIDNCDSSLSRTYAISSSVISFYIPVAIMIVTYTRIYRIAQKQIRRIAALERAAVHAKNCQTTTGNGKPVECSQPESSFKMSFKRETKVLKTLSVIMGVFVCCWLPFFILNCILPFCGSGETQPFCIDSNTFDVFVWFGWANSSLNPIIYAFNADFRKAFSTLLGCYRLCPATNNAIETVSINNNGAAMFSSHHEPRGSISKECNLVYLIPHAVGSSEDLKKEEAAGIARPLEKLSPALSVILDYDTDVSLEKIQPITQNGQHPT
Cytochrome P450 2D6, sequence (P10635 whole entry): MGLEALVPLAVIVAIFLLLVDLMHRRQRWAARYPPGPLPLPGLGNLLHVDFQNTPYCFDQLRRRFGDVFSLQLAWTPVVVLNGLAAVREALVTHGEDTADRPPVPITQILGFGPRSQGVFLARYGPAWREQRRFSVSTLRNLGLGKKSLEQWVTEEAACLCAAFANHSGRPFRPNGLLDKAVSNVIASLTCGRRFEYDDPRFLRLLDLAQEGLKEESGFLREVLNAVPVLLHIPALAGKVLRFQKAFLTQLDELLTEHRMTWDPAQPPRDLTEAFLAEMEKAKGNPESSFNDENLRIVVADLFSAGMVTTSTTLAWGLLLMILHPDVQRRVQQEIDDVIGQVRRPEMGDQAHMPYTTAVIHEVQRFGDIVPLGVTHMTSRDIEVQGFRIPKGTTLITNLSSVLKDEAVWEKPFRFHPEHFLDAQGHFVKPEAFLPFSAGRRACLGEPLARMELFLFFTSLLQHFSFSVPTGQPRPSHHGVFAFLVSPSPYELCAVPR
Cytochrome P450 3A4, sequence (P08684 whole entry): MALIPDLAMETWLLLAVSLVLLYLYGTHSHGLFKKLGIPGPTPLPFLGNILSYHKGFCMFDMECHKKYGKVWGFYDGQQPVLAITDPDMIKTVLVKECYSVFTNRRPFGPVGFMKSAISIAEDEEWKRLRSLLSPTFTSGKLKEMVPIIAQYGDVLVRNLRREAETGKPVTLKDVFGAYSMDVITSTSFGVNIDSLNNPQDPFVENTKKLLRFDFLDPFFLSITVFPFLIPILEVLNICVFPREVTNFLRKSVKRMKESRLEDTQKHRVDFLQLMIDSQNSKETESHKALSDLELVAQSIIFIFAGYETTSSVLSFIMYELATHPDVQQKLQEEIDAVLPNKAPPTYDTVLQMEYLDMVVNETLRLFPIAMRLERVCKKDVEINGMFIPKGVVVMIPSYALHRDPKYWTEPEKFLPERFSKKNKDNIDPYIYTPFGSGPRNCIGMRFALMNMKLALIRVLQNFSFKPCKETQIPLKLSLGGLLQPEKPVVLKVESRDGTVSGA
5-hydroxytryptamine receptor 2B, sequence (P41595 whole entry): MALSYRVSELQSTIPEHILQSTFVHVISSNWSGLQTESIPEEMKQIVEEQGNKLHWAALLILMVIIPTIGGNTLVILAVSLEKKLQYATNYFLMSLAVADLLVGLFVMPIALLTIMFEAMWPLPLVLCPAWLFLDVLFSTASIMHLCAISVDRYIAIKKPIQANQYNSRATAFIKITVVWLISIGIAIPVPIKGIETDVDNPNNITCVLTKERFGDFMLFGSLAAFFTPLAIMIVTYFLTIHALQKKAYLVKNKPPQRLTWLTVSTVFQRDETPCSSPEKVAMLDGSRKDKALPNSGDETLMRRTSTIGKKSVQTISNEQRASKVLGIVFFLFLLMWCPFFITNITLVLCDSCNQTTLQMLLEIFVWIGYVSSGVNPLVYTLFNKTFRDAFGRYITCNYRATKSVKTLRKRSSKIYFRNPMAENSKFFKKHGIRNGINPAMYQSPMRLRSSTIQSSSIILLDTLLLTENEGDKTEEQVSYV

COC(=O)Nc1nc2ccc(C(=O)c3ccccc3)cc2[nH]1 [MEBENDAZOLE]
Not Active: IC50 (Cytochrome P450 3A4) | Ki (Cytochrome P450 3A4) | IC50 (Progesterone receptor) | IC50 (Cytochrome P450 1A2) | Ki (Cytochrome P450 1A2) | IC50 (D(1A) dopamine receptor) | IC50 [1] | IC50 (Cytochrome P450 2D6) | Ki (Cytochrome P450 2D6) | IC50 (Cytochrome P450 2C19) | Ki (Cytochrome P450 2C19) | IC50 (Glucocorticoid receptor)

CC[C@H](C)C(=O)O[C@H]1CCC=C2C=C[C@H](C)[C@H](CC[C@@H]3C[C@@H](O)CC(=O)O3)[C@H]21 [MEVASTATIN]
Not Active: IC50 (Cytochrome P450 3A4) | Ki (Cytochrome P450 3A4) | IC50 (Progesterone receptor) | IC50 (Cytochrome P450 1A2) | Ki (Cytochrome P450 1A2) | IC50 (D(1A) dopamine receptor) | IC50 [1] | IC50 (Cytochrome P450 2D6) | Ki (Cytochrome P450 2D6) | IC50 (Cytochrome P450 2C19) | Ki (Cytochrome P450 2C19) | IC50 (Glucocorticoid receptor)

LEAD(IV) ACETATE
Not Active: IC50 (Cytochrome P450 3A4) | Ki (Cytochrome P450 3A4) | IC50 (Progesterone receptor) | Ki (Progesterone receptor) | IC50 (Cytochrome P450 1A2) | Ki (Cytochrome P450 1A2) | IC50 (D(1A) dopamine receptor) | Ki (D(1A) dopamine receptor) | IC50 [1] | Ki [1] | IC50 (Cytochrome P450 2D6) | Ki (Cytochrome P450 2D6) | IC50 (Cytochrome P450 2C19) | Ki (Cytochrome P450 2C19) | IC50 (Glucocorticoid receptor) | Ki (Glucocorticoid receptor)

CS(=O)(=O)c1ccc(C2=C(c3ccccc3)C(=O)OC2)cc1 [ROFECOXIB]
Not Active: IC50 (Cytochrome P450 3A4) | Ki (Cytochrome P450 3A4) | IC50 (Progesterone receptor) | IC50 (Cytochrome P450 1A2) | Ki (Cytochrome P450 1A2) | IC50 (D(1A) dopamine receptor) | IC50 [1] | IC50 (Cytochrome P450 2D6) | Ki (Cytochrome P450 2D6) | IC50 (Cytochrome P450 2C19) | Ki (Cytochrome P450 2C19) | IC50 (Glucocorticoid receptor)

CC(N)C12CC3CC(CC(C3)C1)C2 (stereo not drawn) [RIMANTADINE]
Not Active: IC50 (Cytochrome P450 3A4) | Ki (Cytochrome P450 3A4) | IC50 (Progesterone receptor) | IC50 (Cytochrome P450 1A2) | Ki (Cytochrome P450 1A2) | IC50 (D(1A) dopamine receptor) | IC50 [1] | IC50 (Cytochrome P450 2D6) | Ki (Cytochrome P450 2D6) | IC50 (Cytochrome P450 2C19) | Ki (Cytochrome P450 2C19) | IC50 (Glucocorticoid receptor)

O=C(O)c1cc(/N=N/c2ccc(S(=O)(=O)Nc3ccccn3)cc2)ccc1O [SULFASALAZINE]
Not Active: IC50 (Cytochrome P450 3A4) | Ki (Cytochrome P450 3A4) | IC50 (Progesterone receptor) | IC50 (Cytochrome P450 1A2) | Ki (Cytochrome P450 1A2) | IC50 (D(1A) dopamine receptor) | IC50 [1] | IC50 (Cytochrome P450 2D6) | Ki (Cytochrome P450 2D6) | IC50 (Cytochrome P450 2C19) | Ki (Cytochrome P450 2C19) | IC50 (Glucocorticoid receptor)

CO[C@@]12[C@H](COC(N)=O)C3=C(C(=O)C(C)=C(N)C3=O)N1C[C@@H]1N[C@@H]12 [MITOMYCIN]
Not Active: IC50 (Cytochrome P450 3A4) | Ki (Cytochrome P450 3A4) | IC50 (Progesterone receptor) | IC50 (Cytochrome P450 1A2) | Ki (Cytochrome P450 1A2) | IC50 (D(1A) dopamine receptor) | IC50 [1] | IC50 (Cytochrome P450 2D6) | Ki (Cytochrome P450 2D6) | IC50 (Cytochrome P450 2C19) | Ki (Cytochrome P450 2C19) | IC50 (Glucocorticoid receptor)
